Data published in patent US7098218B2, “Steroidal compounds for inhibiting steroid sulphatase” (priority 2001, dated 2006).
Several values for one entry are separate records, joined by “and”; a condition that tells them apart may be missing. Equal values may be shown once.

Key:
[1] = target: T1, human placental steroid sulphatase (Homo sapiens, UniProt P08842); assay: Inhibition of oestrone sulphatase activity in human placental microsomes; type: biochemical; settings: for inhibition at 0.0001 µM / inhibition at 0.001 µM / inhibition at 0.01 µM / inhibition at 0.1 µM / inhibition at 1 µM / inhibition at 10 µM: read-out: Mean % Inhibition ± SD
T1 construct: Placental microsomes (100000 g fraction) were prepared from a positive-positive human placenta from a normal-term pregnancy; from tissue; host or cells: human placenta, microsomal fraction
T1 sequence (P08842 22-583): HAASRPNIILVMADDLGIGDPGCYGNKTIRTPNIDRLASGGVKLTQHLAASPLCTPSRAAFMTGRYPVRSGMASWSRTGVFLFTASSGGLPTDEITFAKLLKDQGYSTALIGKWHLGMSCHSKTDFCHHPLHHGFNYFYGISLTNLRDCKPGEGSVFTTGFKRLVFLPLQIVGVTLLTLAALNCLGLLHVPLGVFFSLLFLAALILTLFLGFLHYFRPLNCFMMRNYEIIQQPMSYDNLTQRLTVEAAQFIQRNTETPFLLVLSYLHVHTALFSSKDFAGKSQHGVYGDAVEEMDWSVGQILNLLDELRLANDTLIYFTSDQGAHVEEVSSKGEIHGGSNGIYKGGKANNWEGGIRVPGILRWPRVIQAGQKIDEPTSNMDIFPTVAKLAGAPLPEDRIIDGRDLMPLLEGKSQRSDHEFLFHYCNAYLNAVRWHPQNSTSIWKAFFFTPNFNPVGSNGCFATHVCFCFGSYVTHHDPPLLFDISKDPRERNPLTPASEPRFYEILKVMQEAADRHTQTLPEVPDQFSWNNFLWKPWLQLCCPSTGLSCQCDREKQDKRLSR

[2] = target: T2, E2DH Type II (HSD Type II) in MDA-MB231 breast cancer cells (Homo sapiens, UniProt P37059); assay: Conversion of oestradiol to oestrone in intact MDA-MB231 cell monolayers (Protocol 7); type: cell-based; settings: MDA-MB-231, measured at 10 μM, read-out: % Inhibition E2 → E1 ± SD (HSD Type II)
T2 construct: endogenous in cells; host or cells: MDA-MB-231 breast cancer cells
T2 sequence (P37059 1-387): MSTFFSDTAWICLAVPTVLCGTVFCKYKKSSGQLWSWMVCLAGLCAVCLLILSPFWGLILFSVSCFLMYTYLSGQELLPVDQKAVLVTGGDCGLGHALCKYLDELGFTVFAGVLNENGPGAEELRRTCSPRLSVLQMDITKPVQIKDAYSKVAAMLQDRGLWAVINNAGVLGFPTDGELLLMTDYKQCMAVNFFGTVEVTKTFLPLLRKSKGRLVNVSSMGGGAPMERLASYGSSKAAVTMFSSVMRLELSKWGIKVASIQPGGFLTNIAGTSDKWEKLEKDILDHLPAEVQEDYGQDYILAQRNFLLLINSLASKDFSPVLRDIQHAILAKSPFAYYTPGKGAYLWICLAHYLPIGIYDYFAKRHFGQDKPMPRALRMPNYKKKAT
Experimental: (§1) The ability of compounds to inhibit steroid dehydrogenase activity can be assessed using either T47D breast cancer cells in which E2HSD Type I activity is abundant or MDA-MB-231 cells for Type II inhibitor studies. In both cell lines formation of products is linear with respect to time and cell numbers. Details on a suitable Assay Protocol are presented in the Examples section.
(§2) Conversion of oestrone to oestradiol (E1→E2, E2DH Type I) and oestradiol to oestrone (E2→E1, E2DH Type II) was measured in intact cell monolayers of T47D and MDA-MB231 breast cancer cells respectively. Cells were cultured in flasks until they were 80–90% confluent. ^3 H-E1 or ^3H-E2 (6 pmol, ˜90 Ci/mmol) were added to each flask in the absence (control) or presence of various test compounds (10 μM) in 2.5 ml of medium. Substrate was also added to flasks without cells and incubated in parallel (blanks).
(§3) After incubation with T47D cells for 30 min or MDA cells for 3 h at 37° C., 2 ml of the medium was added to test tubes containing ^14C-E2 or ^14C-E1 (˜5000 cpm) and 50 μg E2 or E1 respectively. Steroids were extracted from the aqueous medium with diethyl ether (4 ml). The ether phase was decanted into separate tubes after freezing the aqueous phase in solid carbon dioxide-methanol mixture. The ether was evaporated to dryness under a stream of air at 40° C. The residue was dissolved in a small volume of diethyl ether and applied to TLC plates containing a fluorescent indicator. E1 and E2 were separated by TLC using DCM-Ethyl acetate (4:1 v/v). The position of the product from each incubation flask was marked on the TLC plate after visualisation under UV light. The marked regions were cut out and placed in scintillation vials containing methanol (0.5 ml) to elute the product. The amount of ^3 H-product formed and ^14C-E1 or ^14C-E2 recovered were calculated after scintillation spectrometry. The amount of product formed was corrected for procedural losses and for the number of cells in each flask.

[3] = target: T3, E2DH Type I (HSD Type I) in T47D breast cancer cells (Homo sapiens, UniProt P14061); assay: Conversion of oestrone to oestradiol in intact T47D cell monolayers (Protocol 7); type: cell-based; settings: measured at 10 μM; for inhibition at 10 µM: T47D, read-out: % Inhibition E1 → E2 ± SD (HSD Type I)
T3 construct: T47D breast cancer cells in which E2HSD Type I activity is abundant; endogenous in cells; host or cells: T47D breast cancer cells
T3 sequence (P14061 2-328 limits assumed): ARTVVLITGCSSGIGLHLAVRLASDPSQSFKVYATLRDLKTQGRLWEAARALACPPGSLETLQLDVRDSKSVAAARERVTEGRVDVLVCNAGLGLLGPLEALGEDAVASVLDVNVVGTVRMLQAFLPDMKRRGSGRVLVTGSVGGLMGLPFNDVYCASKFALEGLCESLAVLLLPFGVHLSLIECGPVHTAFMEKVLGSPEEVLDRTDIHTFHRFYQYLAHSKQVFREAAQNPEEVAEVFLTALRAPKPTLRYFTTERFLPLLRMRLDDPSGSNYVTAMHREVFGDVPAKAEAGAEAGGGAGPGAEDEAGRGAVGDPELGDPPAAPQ
Experimental: as §1, §2, §3

STS = target: T4, STS (Homo sapiens, UniProt P08842); assay: biochemical; settings: STS IC50 (nM), inhibition of E1S→E1; Table 1
T4 construct: can be assessed using either intact MCF-7 breast cancer cells or placental microsomes
T4 sequence (P08842 22-583): T1 sequence (P08842 22-583)

Structure (SMILES) | inhibition at 10 µM [2] [%] | inhibition at 10 µM [3] [%] | further results
C[C@]12CCC3c4ccc(O)cc4CCC3C1CC(=O)NC2=O (stereo partly shown) | – | – | melting point: 297 to 300 °C
CN1C(=O)CC2C3CCc4cc(O)ccc4C3CC[C@]2(C)C1=O (stereo partly shown) | – | – | melting point: 328 to 330 °C
CCCN1C(=O)CC2C3CCc4cc(O)ccc4C3CC[C@]2(C)C1=O (stereo partly shown) | – | – | melting point: 183 to 186 °C
CCCCCN1C(=O)CC2C3CCc4cc(O)ccc4C3CC[C@]2(C)C1=O (stereo partly shown) | – | – | melting point: 181 to 184 °C
C[C@]12CCC3c4ccc(O)cc4CCC3C1CC(=O)N(Cc1ccccc1)C2=O (stereo partly shown) | – | – | melting point: 298 to 301 °C
C[C@]12CCC3c4ccc(O)cc4CCC3C1CC(=O)N(CCCCBr)C2=O (stereo partly shown) | – | – | melting point: 165 to 167 °C
C=CCN1C(=O)CC2C3CCc4cc(O)ccc4C3CC[C@]2(C)C1=O (stereo partly shown) | – | – | melting point: 147 to 149 °C
CCN1C(=O)CC2C3CCc4cc(O)ccc4C3CC[C@]2(C)C1=O (stereo partly shown) | – | – | melting point: 306 to 308 °C
CCCCCCN1C(=O)CC2C3CCc4cc(O)ccc4C3CC[C@]2(C)C1=O (stereo partly shown) | – | – | melting point: 157 to 159 °C
C[C@]12CCC3c4ccc(O)cc4CCC3C1CC(=O)N(CC1CC1)C2=O (stereo partly shown) | – | – | melting point: 238 to 240 °C
CC(C)(C)c1ccc(CN2C(=O)CC3C4CCc5cc(O)ccc5C4CC[C@]3(C)C2=O)cc1 (stereo partly shown) | – | – | melting point: 128 to 130 °C
C[C@]12CCC3c4ccc(OS(N)(=O)=O)cc4CCC3C1CC(=O)NC2=O (stereo partly shown) [Compound 36, 3-Sulfamoyl-16,17-seco-estra-1,3,5(10)-Triene16,17-imide] | – | – | IC50 [1]: 20 nM; inhibition at 0.0001 µM [1]: -6.5 ± 3.6%; inhibition at 0.001 µM [1]: -2.5 ± 3%; inhibition at 0.01 µM [1]: 17.4 ± 32.3%; inhibition at 0.1 µM [1]: 72.6 ± 3.1%; inhibition at 1 µM [1]: 93.8 ± 4.2%; inhibition at 10 µM [1]: 98.7 ± 2.7%
CN1C(=O)CC2C3CCc4cc(OS(N)(=O)=O)ccc4C3CC[C@]2(C)C1=O (stereo partly shown) [Compound 37, 3-Sulfamoyl-N-methyl-16,17-seco-estra-1,3,5(10)-triene-16,17-imide] | – | – | IC50 [1]: 12 nM; inhibition at 0.0001 µM [1]: 4.7 ± 3%; inhibition at 0.001 µM [1]: 15 ± 2.6%; inhibition at 0.01 µM [1]: 46.4 ± 6%; inhibition at 0.1 µM [1]: 81.9 ± 3.3%; inhibition at 1 µM [1]: 96.4 ± 5.1%; inhibition at 10 µM [1]: 99.1 ± 0.2%
C[C@]12CCC3c4ccc(OS(N)(=O)=O)cc4CCC3C1CC(=O)N(Cc1ccccc1)C2=O (stereo partly shown) [STX 236, 3-Sulfamoyl-N-benzyl-16,17-seco-estra-1,3,5(10)-triene-16,7-imide] | – | – | inhibition of STS (in words) ([1]; in vitro): in a minor extend
C[C@]12CCC3c4ccc(O)cc4CCC3C1CC(=O)NC2=O (stereo partly shown) [compound 187] | -15.4 ± 0.41 | 25.3 ± 2.2 | –
CN1C(=O)CC2C3CCc4cc(O)ccc4C3CC[C@]2(C)C1=O (stereo partly shown) [compound 188] | -3.51 ± 2.44 | 33 ± 1.79 | –
CCCN1C(=O)CC2C3CCc4cc(O)ccc4C3CC[C@]2(C)C1=O (stereo partly shown) [compound 189] | 5.05 ± 2.31 | 17 ± 3.25 | –
CCCCCN1C(=O)CC2C3CCc4cc(O)ccc4C3CC[C@]2(C)C1=O (stereo partly shown) [compound 190] | 0.48 ± 4.76 | 24.1 ± 4.59 | –
CCCN1C(=O)CC2C3CCc4cc(OS(N)(=O)=O)ccc4C3CC[C@]2(C)C1=O (stereo partly shown) [compound 213] | 14.3 ± 14.8 | 22.5 ± 1.62 | IC50 (STS): 41 nM

Structure (SMILES) | inhibition at 10 µM [2] [%] | inhibition at 10 µM [3] [%] | further results
C[C@]12CCC3c4ccc(O)cc4CCC3C1CC(=O)N(Cc1ccccc1)C2=O (stereo partly shown) [compound 233] | 35.8 ± 3.88 | 58.8 ± 0.68 | % Inhibition E1 → E2 ± SD (HSD Type I) ([3]; 10 µM): 57.43 ± 1.89%
C[C@]12CCC3c4ccc(O)cc4CCC3C1CC(=O)N(Cc1cccnc1)C2=O (stereo partly shown) [compound 234] | -1.45 ± 11.4 | 25.8 ± 9.27 | –
C[C@]12CCC3c4ccc(O)cc4CCC3C1CC(=O)N(CCCCBr)C2=O (stereo partly shown) [compound 235] | 10.7 ± 0.78 | 16.6 ± 1.46 | –
C[C@]12CCC3c4ccc(OS(N)(=O)=O)cc4CCC3C1CC(=O)N(Cc1ccccc1)C2=O (stereo partly shown) [compound 236] | 5.84 ± 11.8 | 20.4 ± 6.25 | IC50 (STS): 280 nM
C[C@]12CCC3c4ccc(OS(N)(=O)=O)cc4CCC3C1CC(=O)N(Cc1cccnc1)C2=O (stereo partly shown) [compound 237] | – | -2 | –
C=CCN1C(=O)CC2C3CCc4cc(O)ccc4C3CC[C@]2(C)C1=O (stereo partly shown) [compound 274] | -4.04 ± 0.36 | 36.82 ± 0.36 | –
CCN1C(=O)CC2C3CCc4cc(O)ccc4C3CC[C@]2(C)C1=O (stereo partly shown) [compound 275] | 32.1 ± 1.06 | 42.5 ± 3.02 | –
CCCCCCN1C(=O)CC2C3CCc4cc(O)ccc4C3CC[C@]2(C)C1=O (stereo partly shown) [compound 276] | 8.32 ± 7.5 | 22.7 ± 2.2 | –
CCCCN1C(=O)CC2C3CCc4cc(O)ccc4C3CC[C@]2(C)C1=O (stereo partly shown) [compound 277] | 13.2 ± 9.74 | 18.6 ± 0.89 | –
C[C@]12CCC3c4ccc(O)cc4CCC3C1CC(=O)N(CC1CC1)C2=O (stereo partly shown) [compound 278] | 8.31 ± 2.46 | 24.2 ± 1.71 | –
CC(C)(C)c1ccc(CN2C(=O)CC3C4CCc5cc(O)ccc5C4CC[C@]3(C)C2=O)cc1 (stereo partly shown) [compound 279] | 3.87 ± 4.97 | 16 ± 0.88 | –
C=CCN1C(=O)CC2C3CCc4cc(OS(N)(=O)=O)ccc4C3CC[C@]2(C)C1=O (stereo partly shown) [compound 280] | – | – | IC50 (STS): 75 nM
CCN1C(=O)CC2C3CCc4cc(OS(N)(=O)=O)ccc4C3CC[C@]2(C)C1=O (stereo partly shown) [compound 281] | 20.4 ± 3.14 | 24.7 ± 2.39 | IC50 (STS): 52 nM and 24 nM and 29 nM
CCCCCCN1C(=O)CC2C3CCc4cc(OS(N)(=O)=O)ccc4C3CC[C@]2(C)C1=O (stereo partly shown) [compound 282] | – | – | IC50 (STS): 288 nM
CCCCN1C(=O)CC2C3CCc4cc(OS(N)(=O)=O)ccc4C3CC[C@]2(C)C1=O (stereo partly shown) [compound 283] | – | – | IC50 (STS): 382 nM
CC(C)(C)c1ccc(CN2C(=O)CC3C4CCc5cc(OS(N)(=O)=O)ccc5C4CC[C@]3(C)C2=O)cc1 (stereo partly shown) [compound 285] | 3.56 ± 4.89 | 22.5 ± 3.72 | IC50 (STS): 23 nM
C[C@]12CCC3c4ccc(OS(N)(=O)=O)cc4CCC3C1CC(=O)N(CCCCBr)C2=O (stereo partly shown) [compound 286] | -2.98 ± 0.38 | 26 ± 3.23 | –
COc1cc2c(cc1O)CCC1C2CC[C@]2(C)C(=O)NC(=O)CC12 (stereo partly shown) [compound 325] | -20.2 ± 14.8 | 7.78 ± 2.45 | –
COc1cc2c(cc1OS(N)(=O)=O)CCC1C2CC[C@]2(C)C(=O)NC(=O)CC12 (stereo partly shown) [compound 326] | 15 ± 1.22 | 7.5 ± 12.4 | IC50 (STS): 309 nM
